The source of these data is patent publication US20260035339A1, “TETRAHYDRONAPHTHALENE DERIVATIVE” (ATRANSEN PHARMA LTD., priority 2022, published 2026).

Each structure is given as a SMILES string. Some results are limits rather than exact numbers.

Format in all cases: cell-based
Assay [1] addresses T1, human LAT1 (Homo sapiens, UniProt Q01650). Nature of the assay: [14C]L-leucine uptake inhibition test using human-LAT1 stably expressing HEK293 cell line. Also on record: having full-length cDNA of human LAT1 or LAT2 inserted under a promoter of CMV; expressed in transfected cells; key to Assay Data: degree of [14C]L-leucine uptake inhibition compared with BCH: a test compound having a higher inhibitory effect than BCH is denoted by A; a test compound having the same inhibitory effect as BCH is denoted by B; a test compound having a lower inhibitory effect than BCH is denoted by C. The following applies: for Assay Data: degree of [14C]L-leucine uptake inhibition compared with BCH: compound (racemic form) and BCH at 0.1, 1.0, 10 μM, 1 μM [14C]L-leucine, 1 minute, Na+-free HBSS. From the text:
HEK293 cells stably expressing human LAT1 and LAT2 were produced, respectively.
A shuttle vector DNA (LAT1: pcDNA3.1(+) -hLAT1, LAT2: pcDNA3.1(+) -hLAT2; expression vector pcDNA3.1 (+) was produced by Invitrogen Corp.) having ampicillin and neomycin resistance markers and having full-length cDNA of human LAT1 or LAT2 inserted under a promoter of CMV (cytomegalovirus) was constructed. This vector was transfected into the HEK293 cells by a method using Lipofectamine (registered trademark) 2000 (Invitrogen Corp.) according to the manufacturer's instructions. Thereafter, stably expressing cell clones of transgene were selected by a limiting dilution method in the presence of 0.9 mg/mL of Geneticin (registered trademark), and among the obtained cell clones, cell clones having a high uptake of [^14C]L-leucine and maintaining stable expression even after 10 passages were obtained. These cells were used for evaluating affinity and selectivity for LAT1 and LAT2.
1-1. It has been confirmed that LAT1 is responsible for L-leucine uptake in the absence of sodium ions in the human-LAT1 stably expressing HEK293 cell line. The human-LAT1 stably expressing HEK293 cell line was seeded in a 24-well plate at 1×10^5 Cell/Well, and the [^14C]L-leucine uptake inhibition test using the compound was performed after 48 hours. After the medium was removed and the cells were washed with Hank's balanced salt solution (Na^+-free HBSS) not containing sodium ions, the cells were cultured in Na^+-free HBSS for 10 minutes. Thereafter, 1 μM of [^14C]L-leucine was taken up in Na^+-free HBSS in the presence of a test compound (0.1, 1.0, 10, 0 μM in each case), which is a racemic form, for 1 minute, and then the cells were washed three times with ice-cooled Na^+-free HBSS. To the well, 500 μL of 1 M NaOH was added, and after 30 minutes, the cells were lysed, and the cell lysate was collected. The amount of [^14C]L-leucine in the cell lysate was determined using a liquid scintillator. The amount of protein in the cell lysate was measured using BCA Assay Kit (Thermofisher Scientific), and the uptake amount of [^14C]L-leucine per 1 mg of protein in the cell per minute was calculated.
The degree of LAT1 inhibition of the compound obtained in the present invention was compared with BCH (BCH, 2-aminobicyclo-(2,2,1)-heptane-2-carboxylic acid), which is an existing LAT1 inhibitor. In the [^14C]L-leucine uptake inhibition test described above, the degrees of inhibition of [^14C]L-leucine uptake inhibition using the compound (racemic form) obtained in Examples and BCH (0.1, 1.0, 10, 0 μM for both) were compared. […] In the table, a test compound having a higher inhibitory effect than BCH is denoted by A, a test compound having the same inhibitory effect as BCH is denoted by B, and a test compound having a lower inhibitory effect than BCH is denoted by C.

In assay [2] the test system is Mouse colorectal cancer-derived CT26 cells. Nature of the assay: Cell proliferation inhibitory effect using mouse colorectal cancer cells (CCK-8 assay). The following applies: 72 hours compound treatment, read-out: Evaluation of IC50 (proliferation inhibition rate of 50%). Here is the method: Mouse colorectal cancer-derived CT26 cells were adjusted to […], seeded in a 96-well plate at 1000 cells/well, and cultured in a 10% fetal bovine serum-added RPMI 1640 medium at 5% CO2 and 37° C. The culture medium was changed 24 hours after the start of the culture, and the medium containing the compound of Example was replaced to examine the action of the compound on cell proliferation. As the compound, a concentration of 0.01, 0.03, 0.1, 0.3, 1, 3, 10, or 30 μM was used. As a control, the cells were cultured in a medium containing no compound. The number of cells was evaluated by CCK-8 assay (Cell Counting Kit-8, DOJINDO LABORATORIES) 72 hours after the start of the compound treatment, and the compound concentration (IC50 value) giving a proliferation inhibition rate of 50% as compared with the control was calculated.
For orientation: Tetrazolium dyes change colour on reduction, which living cells bring about.

The target in assay [3] is T1, human LAT1. Nature of the assay: Leucine uptake persistence inhibitory effect after compound removal in human-LAT1 highly expressing cell line. The following applies: 20 μM compound for 30 minutes, removed, uptake measured 30 minutes later. How it is done: The uptake of [^14C]L-leucine remaining after the compound of the present invention was caused to act in advance and removed in the human-LAT1 highly expressing cell line was examined. In the same manner as in the uptake inhibition test, the cell line was seeded in a 24-well plate, and an MEM (Minimum Essential Medium) medium containing 20 μM of the compound (racemic form) was added to the wells and allowed to act for 30 minutes. An MEM medium containing no compound was used as a control. After the compound was caused to act, the cells were washed 3 times with the MEM medium and cultured in the MEM medium for an additional 30 minutes. Thereafter, washing was performed 3 times with Na^+Free-HBSS, and 1 μM of [^14C]L-leucine dissolved in Na^+Free-HBSS was taken up for 1 minute. The cells were washed 3 times with ice-cooled Na^+Free-HBSS, and the amount of [^14C]L-leucine taken up in the cells was determined with a liquid scintillator. In the same manner as in other tests, the amount of protein in the cell fluid was measured, and the uptake amount of [^14C]L-leucine per 1 mg of protein in the cell fluid per minute was determined.

T1 sequence (Q01650 whole entry): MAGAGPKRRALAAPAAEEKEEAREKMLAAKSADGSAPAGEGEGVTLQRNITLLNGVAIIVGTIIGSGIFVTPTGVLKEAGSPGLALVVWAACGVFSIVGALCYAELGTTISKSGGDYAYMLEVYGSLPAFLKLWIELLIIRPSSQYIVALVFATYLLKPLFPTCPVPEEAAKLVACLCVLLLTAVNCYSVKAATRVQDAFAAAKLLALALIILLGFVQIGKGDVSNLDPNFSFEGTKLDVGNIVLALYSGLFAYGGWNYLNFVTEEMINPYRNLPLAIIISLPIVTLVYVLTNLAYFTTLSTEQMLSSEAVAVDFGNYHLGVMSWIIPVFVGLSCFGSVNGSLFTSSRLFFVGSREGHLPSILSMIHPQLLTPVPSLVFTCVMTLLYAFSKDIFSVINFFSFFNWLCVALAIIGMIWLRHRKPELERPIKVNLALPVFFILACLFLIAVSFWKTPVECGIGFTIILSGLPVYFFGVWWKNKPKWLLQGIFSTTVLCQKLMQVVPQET
T1 sequence (P08195 102-630 partner): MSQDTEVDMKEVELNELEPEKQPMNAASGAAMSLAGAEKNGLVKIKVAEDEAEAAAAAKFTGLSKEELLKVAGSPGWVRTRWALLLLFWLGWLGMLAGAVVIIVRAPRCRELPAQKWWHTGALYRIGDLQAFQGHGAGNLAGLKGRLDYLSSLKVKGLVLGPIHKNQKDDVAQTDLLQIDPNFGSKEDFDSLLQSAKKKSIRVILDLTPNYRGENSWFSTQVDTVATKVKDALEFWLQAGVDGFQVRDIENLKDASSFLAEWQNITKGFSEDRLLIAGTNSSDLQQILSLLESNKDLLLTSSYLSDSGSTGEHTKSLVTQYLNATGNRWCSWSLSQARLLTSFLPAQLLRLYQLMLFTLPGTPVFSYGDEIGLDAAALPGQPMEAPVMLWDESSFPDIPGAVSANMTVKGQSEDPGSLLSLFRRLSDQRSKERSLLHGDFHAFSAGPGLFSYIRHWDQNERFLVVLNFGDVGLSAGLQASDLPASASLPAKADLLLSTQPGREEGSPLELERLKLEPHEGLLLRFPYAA

Consider `Cl.NC1(C(=O)O)CCc2ccc(Oc3ccccc3-c3cccc(F)c3)cc2C1` (centres unmarked) [Example 1-30, 2-carboxy-7-((3′-fluoro-[1,1′-biphenyl]-2-yl)oxy)-1,2,3,4-tetrahydronaphthalene-2-aminium chloride], for which, at human LAT1 [1], the “Assay Data: degree of [14C]L-leucine uptake inhibition compared with BCH” value is listed as “A”. Besides, in assay [2], the IC50 is at most 900 nM. For the same compound, the “sustained LAT1 inhibitory effect as compared with Example 1-1” value at human LAT1 [3] is reported as “more remarkable effect”.

Take `Cl.NC1(C(=O)O)CCc2ccc(Oc3ccccc3-c3cccc(Cl)c3)cc2C1` (centres unmarked) [Example 1-33, 2-carboxy-7-((3′-chloro-[1,1′-biphenyl]-2-yl)oxy)-1,2,3,4-tetrahydronaphthalene-2-aminium chloride]: the “Assay Data: degree of [14C]L-leucine uptake inhibition compared with BCH” value on human LAT1 [1] is recorded as “A”. In assay [2], the IC50 was at most 900 nM. The “sustained LAT1 inhibitory effect as compared with Example 1-1” value on human LAT1 [3] was “more remarkable effect”.

`Cl.NC1(C(=O)O)CCc2ccc(Oc3ccccc3-c3cccc4ccccc34)cc2C1` (centres unmarked) [Example 1-35, 2-Carboxy-7-(2-(naphthalen-1-yl)phenoxy)-1,2,3,4-tetrahydronaphthalene-2-aminium chloride]: the “Assay Data: degree of [14C]L-leucine uptake inhibition compared with BCH” value at human LAT1 [1] is “A”. In assay [2], the IC50 is at most 900 nM. Besides, the “sustained LAT1 inhibitory effect as compared with Example 1-1” value at human LAT1 [3] was “more remarkable effect”.

`Cl.NC1(C(=O)O)CCc2ccc(Oc3ccccc3-c3cccc([N+](=O)[O-])c3)cc2C1` (centres unmarked) [Example 1-42, 2-carboxy-7-((3′-nitro-[1,1′-biphenyl]-2-yl)oxy)-1,2,3,4-tetrahydronaphthalene-2-aminium chloride]: the “Assay Data: degree of [14C]L-leucine uptake inhibition compared with BCH” value on human LAT1 [1] was “A”. The IC50 in assay [2] was at most 900 nM. The “sustained LAT1 inhibitory effect as compared with Example 1-1” value on human LAT1 [3] is recorded as “more remarkable effect”.

For the compound `Cc1cccc(-c2ccccc2Oc2ccc3c(c2)CC(N)(C(=O)O)CC3)c1.Cl` (centres unmarked) [Example 1-43, 2-carboxy-7-((3′-methyl-[1,1′-biphenyl]-2-yl)oxy)-1,2,3,4-tetrahydronaphthalene-2-aminium chloride], the “Assay Data: degree of [14C]L-leucine uptake inhibition compared with BCH” value at human LAT1 [1] is “A”. Further, the IC50 in assay [2] is at most 900 nM. Moreover, the “sustained LAT1 inhibitory effect as compared with Example 1-1” value at human LAT1 [3] is “more remarkable effect”.

`Cc1cccc2cccc(Oc3ccc4c(c3)CC(N)(C(=O)O)CC4)c12.Cl` (centres unmarked) [Example 1-46, 2-carboxy-7-((8-methylnaphthalen-1-yl)oxy)-1,2,3,4-tetrahydronaphthalene-2-aminium chloride]: the “Assay Data: degree of [14C]L-leucine uptake inhibition compared with BCH” value on human LAT1 [1] is reported as “A”. Moreover, the “LAT1 inhibitory effect, compounds singled out (in words)” value on human LAT1 [1] (same test as Table 1) is recorded as “particularly remarkable effects”. In addition, the IC50 in assay [2] was at most 900 nM. Besides, the “sustained LAT1 inhibitory effect as compared with Example 1-1” value on human LAT1 [3] is listed as “more remarkable effect”.

In the case of `Cl.NC1(C(=O)O)CCc2ccc(Oc3ccccc3-c3ccc(F)c(Cl)c3)cc2C1` (centres unmarked) [Example 1-48, 2-carboxy-7-((3′-Chloro-4′-fluoro-[1,1′-biphenyl]-2-yl)oxy)-1,2,3,4-tetrahydronaphthalene-2-aminium chloride], the “Assay Data: degree of [14C]L-leucine uptake inhibition compared with BCH” value at human LAT1 [1] is “A”. For the same compound, in assay [2], the IC50 is at most 900 nM. For the same compound, the “sustained LAT1 inhibitory effect as compared with Example 1-1” value on human LAT1 [3] is recorded as “more remarkable effect”.

As to `Cl.NC1(C(=O)O)CCc2ccc(Oc3ccccc3-c3cccc(F)c3Cl)cc2C1` (centres unmarked) [Example 1-49, 2-Carboxy-7-((2′-Chloro-3′-fluoro-[1,1′-biphenyl]-2-yl)oxy)-1,2,3,4-tetrahydronaphthalene-2-aminium chloride], at human LAT1 [1], the “Assay Data: degree of [14C]L-leucine uptake inhibition compared with BCH” value was “A”. Moreover, the IC50 in assay [2] is at most 900 nM. For the same compound, at human LAT1 [3], the “sustained LAT1 inhibitory effect as compared with Example 1-1” value is given as “more remarkable effect”.

As for `CN(C)c1cccc(-c2ccccc2Oc2ccc3c(c2)CC(N)(C(=O)O)CC3)c1.Cl.Cl` (centres unmarked) [Example 1-50, 2-Carboxy-7-((3′-(Dimethylammonio)-[1,1′-biphenyl]-2-yl)oxy)-1,2,3,4-tetrahydronaphthalene-2-aminium chloride], the “Assay Data: degree of [14C]L-leucine uptake inhibition compared with BCH” value at human LAT1 [1] was “A”. The IC50 in assay [2] is at most 900 nM. Besides, the “sustained LAT1 inhibitory effect as compared with Example 1-1” value on human LAT1 [3] is “more remarkable effect”.

As for `CSc1cccc(-c2ccccc2Oc2ccc3c(c2)CC(N)(C(=O)O)CC3)c1.Cl` (centres unmarked) [Example 1-52, 2-Carboxy-7-((3′-(methylthio)-[1,1′-biphenyl]-2-yl)oxy)-1,2,3,4-tetrahydronaphthalene-2-aminium chloride], the “Assay Data: degree of [14C]L-leucine uptake inhibition compared with BCH” value at human LAT1 [1] is recorded as “A”. Also, the IC50 in assay [2] is at most 900 nM. Further, on human LAT1 [3], the “sustained LAT1 inhibitory effect as compared with Example 1-1” value is given as “more remarkable effect”.

For `Cl.NC1(C(=O)O)CCc2ccc(Oc3ccccc3-c3c(F)c(F)c(F)c(F)c3F)cc2C1` (centres unmarked) [Example 1-64, 2-carboxy-7-((2′,3′,4′,5′,6′-pentafluoro-[1,1′-biphenyl]-2-yl)oxy)-1,2,3,4-tetrahydronaphthalene-2-aminium chloride], the “Assay Data: degree of [14C]L-leucine uptake inhibition compared with BCH” value on human LAT1 [1] was “A”. Further, the IC50 in assay [2] is at most 900 nM.

For `Cl.NC1(C(=O)O)CCc2ccc(Oc3ccccc3-c3cc(F)cc(F)c3)cc2C1` (centres unmarked) [Example 1-65, 2-Carboxy-7-((3′,5′-difluoro-[1,1′-biphenyl]-2-yl)oxy)-1,2,3,4-tetrahydronaphthalene-2-aminium chloride], the “Assay Data: degree of [14C]L-leucine uptake inhibition compared with BCH” value at human LAT1 [1] is on record as “A”. For the same compound, the IC50 in assay [2] was at most 900 nM.

With `Cl.NC1(C(=O)O)CCc2ccc(Oc3ccccc3-c3cc(F)cc(Cl)c3)cc2C1` (centres unmarked) [Example 1-66, 2-Carboxy-7-((3′-chloro-5′-fluoro-[1,1′-biphenyl]-2-yl)oxy)-1,2,3,4-tetrahydronaphthalene-2-aminium chloride], the “Assay Data: degree of [14C]L-leucine uptake inhibition compared with BCH” value at human LAT1 [1] is “A”. Further, the IC50 in assay [2] was at most 900 nM.

For `NC1(C(=O)O)CCc2ccc(Oc3ccccc3-c3cc(F)cc(Cl)c3Cl)cc2C1` (centres unmarked) [Example 1-67, 2-carboxy-7-((2′,3′-dichloro-5′-fluoro-[1,1′-biphenyl]-2-yl)oxy)-1,2,3,4-tetrahydronaphthalene-2-aminium chloride], the “Assay Data: degree of [14C]L-leucine uptake inhibition compared with BCH” value on human LAT1 [1] is reported as “A”. Also, the IC50 in assay [2] is at most 900 nM.

As to `Cl.NC1(C(=O)O)CCc2ccc(Oc3ccc([N+](=O)[O-])cc3-c3cccc4ccccc34)cc2C1` (centres unmarked) [Example 1-69, 2-Carboxy-7-(2-(naphthalen-1-yl)-4-nitrophenoxy)-1,2,3,4-tetrahydronaphthalene-2-aminium chloride], the “Assay Data: degree of [14C]L-leucine uptake inhibition compared with BCH” value at human LAT1 [1] is recorded as “A”. Moreover, the IC50 in assay [2] is at most 900 nM.
